We go through three compounds from patent US20230059404A1, “Method for Producing Brown Adipocytes” (Kataoka Corporation, priority 2019, published 2023).

One test deals with human fibroblasts. The test is described as follows: Direct conversion of human fibroblasts to brown adipocytes in serum-free medium SFBAM, efficiency judged comprehensively. In kind it is cell-based. Particulars: conclusion from removal experiments.
For test [1], the system named is β-adrenergic receptor signal pathway in brown adipocytes. The test is described as follows: Heat production capacity: Ucp1 mRNA after isoproterenol treatment of induced brown adipocytes. In kind it is cell-based, human. The settings on record: 6 hours treatment of cells induced with Example 3 (3 weeks SFBAM + 1 week SFBAMaM); compared with control treated with H2O; FIG. 9.
Procedure: To quantify gene expression, total RNAs were extracted from fibroblasts treated with the respective compounds using FastGene (registered trademark) RNA basic kit (manufactured by Nippon Genetics Co., Ltd.). Fibroblasts were cultured in parallel using SFBAM as a control, and the total RNAs were extracted from the brown adipocytes induced with compounds and the control cells. After performing reverse-transcription with ReverTraAce (registered trademark) PCR RT Master Mix with gDNA Remover (manufactured by Toyobo Co., Ltd.), the real-time PCR analysis was performed by Power SYBR Green PCR Master Mix (Thermo Fisher Scientific). Three reactions were carried out per level under the following conditions: 40 cycles of reactions at 95° C. for 10 minutes, at 95° C. for 15 seconds, and at 60° C. for 60 seconds, in order. All results were normalized to the quantity of Tbp mRNA.
Regarding the cells, Ucp1 mRNA was quantified in the case after treatment with isoproterenol (β-adrenergic receptor agonist) for 6 hours and in the case after treatment with H2O, which is the solvent.

Molecules are shown by their SMILES.

Procedure for human fibroblasts: The above human fibroblasts were seeded in 35 mm dishes coated with gelatin (Cat #: 190-15805, manufactured by FUJIFILM Wako Pure Chemical Co.) at 5×10^4, and cultured in DMEM medium (Cat #: 11965092; manufactured by Gibco) supplemented with 10% fetal bovine serum (FBS), 100 U/mL penicillin, 100 μg/mL streptomycin until 80% to 90% confluency at 37° C., 5% CO2.
Hereinafter, this is referred to as serum-free brown adipocyte-inducing medium “SFBAM”.
After the human fibroblasts reached 80% to 90% confluency, the dish medium was replaced with the above SFBAM and the human fibroblasts were cultured in SFBAM for 3 weeks. The medium was changed every 3 days.
The more the number of + marks, the higher the conversion efficiency. […] The mark − indicates no conversion to brown adipocytes.

`C=C[C@@]1(C)CC(=O)[C@]2(O)[C@@]3(C)[C@@H](O)CCC(C)(C)[C@@H]3[C@H](O)[C@H](OC(C)=O)[C@@]2(C)O1` [forskolin, Forskolin]: in the test on human fibroblasts, the “conversion efficiency attributed to the single compound” value is “followed by a high conversion efficiency”.
As for `CC(C)NCC(O)c1ccc(O)c(O)c1` (stereo not drawn) [isoproterenol, Isoproterenol], the “Ucp1 mRNA increase after treatment” value in test [1] is listed as “up to 3.1 fold”.
In the case of `CN(CCOc1ccc(CC2SC(=O)NC2=O)cc1)c1ccccn1` (stereo not drawn) [rosiglitazone, Rosiglitazone], the “conversion efficiency attributed to the single compound” value with human fibroblasts was “high conversion efficiency”.
